Data from patent US20180340001A1, “Probes for 18F Positron Emission Tomography Imaging” (The Texas A&M University System, priority 2017, published 2018).

Columns and labels:
[1] = MicroPET/CT imaging, in vivo stability in nude mice; conditions: for free [18F]-fluoride signal / release in vivo: murine model, up to 3 hours post-injection
Protocol: (§1) The stability of [^18F]-1 was first investigated in phosphate buffer solution (1×PBS). […] The stability of [^18F]-1 was further evaluated in a murine model. The probe [^18F]-1 (0.1 mCi) was injected into female nude mice and static microPET scans were obtained at 3 hours after the injection.
MicroPET imaging were acquired at 3 h post injection. For PET image acquiring, a female nude mouse was injected with 0.1 mCi of [^18F]-1 via the tail vein. At 3 hour post injection, the mouse was anesthetized using isoflurane (2% in oxygen), then placed into imaging chambers equipped with a heated coil to maintain body temperature and gas anesthesia. The static microPET acquisitions were then achieved and reconstructed for analysis.

[2] = pH 7.5
[3] = In vitro stability of [18F]-1 in 1×PBS by radio-HPLC; format: physicochemical; conditions: incubation time 3 hours
Protocol: as §1
After HPLC purification, [^18F]-1 was re-injected into HPLC for a radio profile standard. Then, the probe was added with 10×PBS to reconstruct the solution to IX PBS and 0.1 N NaOH to adjust pH to 7, respectively. After 1 hour and 3 hours incubation, a fraction of [^18F]-1 was injected into HPLC. The radio purity was calculated based on the integration of the product peak and other minor peaks.

| Compound | free [18F]-fluoride signal / release in vivo ([1]; listed as IMe-PF5) | free fluoride signal / release of free fluoride [2] | hydrolytic stability (in words) [2] | pseudo-first order rate constant (kobs) of hydrolysis [2] [min⁻¹] | localization in microPET/CT images ([1]; female nude mice, 0.1 mCi via tail vein, static scan 3 h after injection) | bone uptake ([1]; female nude mice, 0.1 mCi, 3 h post-injection) | route of clearance ([1]; female nude mice, 0.1 mCi, microPET/CT 3 h after injection) | free [18F]-fluoride signal / release in vivo [1] | free [18F]-fluoride signal / release in vivo ([1]; listed as 18F—PFS-carbene) | radiochemical purity after incubation [3] [%] |
| --- | --- | --- | --- | --- | --- | --- | --- | --- | --- | --- |
| Cn1cc[n+](C)c1[P-](F)(F)(F)(F)F [Compound 1, IMe-PF5] | not observed | not observed | highly water stable |  |  |  |  |  |  |  |
| Cn1cc[n+](C)c1[P-](F)(F)(F)(F)c1ccccc1 [Compound 2, (NHC)PF4Ph] |  |  | highly water stable | 2.3e-05 |  |  |  |  |  |  |
| Cn1cc[n+](C)c1[P-](F)(F)(F)(F)F [[^18F]-1] |  |  |  |  | obvious localization in the bladder | No bone uptake was observed | cleared through the urinary track | insignificant | not observed | > 98 |
